Laboratory results taken from ChEMBL document CHEMBL1201862, “PubChem BioAssay data set” (2004).
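Results reflect a 48-hour exposure of cells in 96-well plates to compound at five concentrations. Abbreviation: GI50, concentration required for 50% inhibition of growth.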 Activity calls are given as the source filed them. Rule as the data show it: active = GI50 up to about 1.1 µM and inactive = higher.

What was measured:
Test in all cases: inhibition of tumour cell growth, NCI panel, 48 h
ACHN = system: ACHN
CCRF-CEM = system: CCRF-CEM
COLO 205 = system: COLO 205
HOP-92 = system: HOP-92
HT-29 = system: HT-29
MDA-MB-231 = system: MDA-MB-231
NCI-H23 = system: NCI-H23
NCI-H460 = system: NCI-H460
OVCAR-3 = system: OVCAR-3
OVCAR-4 = system: OVCAR-4
OVCAR-5 = system: OVCAR-5
OVCAR-8 = system: OVCAR-8
PC-3 = system: PC-3
RPMI-8226 = system: RPMI-8226
SF-539 = system: SF-539
SK-MEL-28 = system: SK-MEL-28
SN12C = system: SN12C
SNB-75 = system: SNB-75
UACC-62 = system: UACC-62
T47D = system: T47D

Row | Structure (SMILES) | GI50 (ACHN) | GI50 (CCRF-CEM) | GI50 (COLO 205) | GI50 (HOP-92) | GI50 (HT-29) | GI50 (MDA-MB-231) | GI50 (NCI-H23) | GI50 (NCI-H460) | GI50 (OVCAR-3) | GI50 (OVCAR-4) | GI50 (OVCAR-5) | GI50 (OVCAR-8) | GI50 (PC-3) | GI50 (RPMI-8226) | GI50 (SF-539) | GI50 (SK-MEL-28) | GI50 (SN12C) | GI50 (SNB-75) | GI50 (UACC-62) | GI50 (T47D)
1 | C1=N\CCOCC/N=C\c2ccc(cc2)OCc2cccc(n2)COc2ccc/1cc2 | > 100 µM (inactive) | > 100 µM (inactive) | > 100 µM (inactive) | > 100 µM (inactive) | > 100 µM (inactive) | 54.6 µM (inactive) | > 100 µM (inactive) | > 100 µM (inactive) | 37.6 µM (inactive) | > 100 µM (inactive) | > 100 µM (inactive) | > 100 µM (inactive) | > 100 µM (inactive) | > 100 µM (inactive) | > 100 µM (inactive) | > 100 µM (inactive) | > 100 µM (inactive) | > 100 µM (inactive) | > 100 µM (inactive) | 
2 | COc1ccc(OC)c(/C=N/N=C2\C(=O)Nc3c(Cl)cc(Cl)cc32)c1 | 52.4 µM (inactive) | 59.7 µM (inactive) | > 100 µM (inactive) | 47.3 µM (inactive) | 63.4 µM (inactive) | 34 µM (inactive) | 48.4 µM (inactive) | 63.5 µM (inactive) | 70.3 µM (inactive) | 38.2 µM (inactive) | > 100 µM (inactive) | 61 µM (inactive) | 38.8 µM (inactive) |  | 38 µM (inactive) | > 100 µM (inactive) | > 100 µM (inactive) | 0.505 µM (active) | 55.6 µM (inactive) | 
3 | O=C(/C=C/c1cccs1)c1ccsc1 | 20.2 µM (inactive) | 16.5 µM (inactive) | 18.1 µM (inactive) |  | 19.3 µM (inactive) | > 10 µM (inactive) | 18.1 µM (inactive) | 24.5 µM (inactive) |  | 51.1 µM (inactive) | 26.9 µM (inactive) | 27.6 µM (inactive) | 22.4 µM (inactive) | 15.9 µM (inactive) |  | 32.7 µM (inactive) | 19.8 µM (inactive) | 27.8 µM (inactive) | 16.5 µM (inactive) | 26.3 µM (inactive)
4 | [N-]=[N+]=CC(=O)OC1CCc2ccccc21 (centres undefined) | 9.95 µM (inactive) | > 10 µM (inactive) | 73.1 µM (inactive) | 44.6 µM (inactive) | > 100 µM (inactive) | 44.1 µM (inactive) | 82.8 µM (inactive) | 47.8 µM (inactive) | > 100 µM (inactive) | > 100 µM (inactive) | 46.5 µM (inactive) |  | > 100 µM (inactive) | > 100 µM (inactive) |  | > 100 µM (inactive) | 42.5 µM (inactive) |  | > 100 µM (inactive) | 
5 | Cn1ccnc1CCc1ccc(Cl)cc1Cl | > 100 µM (inactive) | > 100 µM (inactive) | > 100 µM (inactive) | 49.9 µM (inactive) | 79.4 µM (inactive) |  | > 100 µM (inactive) | > 100 µM (inactive) | > 100 µM (inactive) | > 100 µM (inactive) | > 100 µM (inactive) | > 100 µM (inactive) |  | > 100 µM (inactive) | > 100 µM (inactive) | > 100 µM (inactive) | > 100 µM (inactive) | > 100 µM (inactive) | > 100 µM (inactive) | 
6 | CCOC(=O)C1CC(=O)C=C2CCCCC21 (centres undefined) | > 100 µM (inactive) | > 100 µM (inactive) | > 100 µM (inactive) | > 100 µM (inactive) | > 100 µM (inactive) |  | > 100 µM (inactive) | > 100 µM (inactive) | > 100 µM (inactive) | > 100 µM (inactive) | > 100 µM (inactive) | > 100 µM (inactive) |  | > 100 µM (inactive) | > 100 µM (inactive) | > 100 µM (inactive) | > 100 µM (inactive) | 99.3 µM (inactive) | > 100 µM (inactive) | 
7 | O=c1[nH]c(=O)n([C@H]2C[C@@H](CO)[C@@H](O)C2)cc1I | > 100 µM (inactive) | > 100 µM (inactive) | > 100 µM (inactive) | > 100 µM (inactive) | > 100 µM (inactive) |  | > 100 µM (inactive) | > 100 µM (inactive) | > 100 µM (inactive) | > 100 µM (inactive) | > 100 µM (inactive) | > 100 µM (inactive) |  | > 100 µM (inactive) | > 100 µM (inactive) | > 100 µM (inactive) | > 100 µM (inactive) | 91.6 µM (inactive) | > 100 µM (inactive) | 
8 | COc1ccc2nc(-c3ccc(O)cc3)ccc2c1 | > 100 µM (inactive) | 2.16 µM (inactive) | > 100 µM (inactive) | > 100 µM (inactive) | > 100 µM (inactive) |  | > 100 µM (inactive) | > 100 µM (inactive) | > 100 µM (inactive) | > 100 µM (inactive) | > 100 µM (inactive) | > 100 µM (inactive) |  | > 100 µM (inactive) | > 100 µM (inactive) | > 100 µM (inactive) | > 100 µM (inactive) | 59.7 µM (inactive) | > 100 µM (inactive) | 
9 | CC[C@H](C)[C@H]1NC(=O)[C@@H](NC(=O)[C@@H](CC(C)C)N(C)C(=O)C2CCCN2C(=O)[C@H](C)O)[C@@H](C)OC(=O)[C@H](Cc2ccc(OC)cc2)N(C)C(=O)[C@@H]2CCCN2C(=O)[C@H](CCCCNC(=O)OCc2ccccc2)NC(=O)[C@H](C)C(=O)[C@H](C(C)C)OC(=O)C[C@@H]1O (some centres undefined) | 20.1 µM (inactive) | 6.46 µM (inactive) | 3.91 µM (inactive) | 3.49 µM (inactive) | 3.37 µM (inactive) |  | 10.7 µM (inactive) | 6.4 µM (inactive) | 4.01 µM (inactive) | 5.47 µM (inactive) | 7.28 µM (inactive) | 19.7 µM (inactive) | 3.93 µM (inactive) | 4.17 µM (inactive) | 12.8 µM (inactive) | 12.2 µM (inactive) | 5.64 µM (inactive) |  | 8.2 µM (inactive) | 7.67 µM (inactive)
10 | COc1cccc2c1OC(c1ccc(Cl)cc1)C([N+](=O)[O-])=C2 (centres undefined) | 1.46 µM (inactive) | 0.356 µM (active) | 2.19 µM (inactive) |  | 1.35 µM (inactive) | 3.52 µM (inactive) | 3.77 µM (inactive) | 1.58 µM (inactive) | 2.54 µM (inactive) | 2.17 µM (inactive) | 2.79 µM (inactive) | 1.93 µM (inactive) | 1.66 µM (inactive) | 1.52 µM (inactive) |  | 2.61 µM (inactive) | 2.35 µM (inactive) |  | 1.74 µM (inactive) | 2.34 µM (inactive)
11 | Cc1ccc(Nc2nc3c(s2)C(=O)c2ccccc2C3=O)c(C)c1 | 15.7 µM (inactive) | 4.13 µM (inactive) | 18.9 µM (inactive) | 9.48 µM (inactive) | 20.9 µM (inactive) |  | 10.1 µM (inactive) | 22.2 µM (inactive) | 13.7 µM (inactive) | 12.2 µM (inactive) | 19.8 µM (inactive) | 15.7 µM (inactive) |  | 12.1 µM (inactive) | 17.5 µM (inactive) | 16.8 µM (inactive) | 16.9 µM (inactive) | 15.8 µM (inactive) | 13.8 µM (inactive) | 
12 | CCOC(=O)[C@H]1C[C@@H](C(=O)c2ccccc2)N2N=C(c3ccc(Br)cc3)C=C[C@H]12 | > 100 µM (inactive) |  | > 100 µM (inactive) |  |  | > 100 µM (inactive) | > 100 µM (inactive) | > 100 µM (inactive) | > 100 µM (inactive) | > 100 µM (inactive) | > 100 µM (inactive) | > 100 µM (inactive) | > 100 µM (inactive) | > 100 µM (inactive) |  | > 100 µM (inactive) | > 100 µM (inactive) | > 100 µM (inactive) | > 100 µM (inactive) | > 100 µM (inactive)
13 | CC(=O)c1cn(-c2ccc(Cl)cc2)c(=O)c2c(N)n[nH]c12 | 25.6 µM (inactive) | > 100 µM (inactive) | > 100 µM (inactive) |  | > 100 µM (inactive) | > 100 µM (inactive) | > 100 µM (inactive) | > 100 µM (inactive) |  | > 100 µM (inactive) |  | > 100 µM (inactive) | > 100 µM (inactive) | > 100 µM (inactive) |  | > 100 µM (inactive) |  | > 100 µM (inactive) | 41.7 µM (inactive) | > 100 µM (inactive)
14 | CC[C@@H]1OC2(C)CC(S(=O)(=O)c3ccccc3O)CC1O2 (some centres undefined) | > 100 µM (inactive) | > 100 µM (inactive) | > 100 µM (inactive) | > 100 µM (inactive) | > 10 µM (inactive) |  | > 100 µM (inactive) | > 100 µM (inactive) | > 100 µM (inactive) | > 100 µM (inactive) | > 100 µM (inactive) | > 100 µM (inactive) |  | > 100 µM (inactive) | > 100 µM (inactive) | > 100 µM (inactive) | > 100 µM (inactive) | > 100 µM (inactive) | > 100 µM (inactive) | 
15 | CCCCCCCCC[C@@H]1CC(=O)OCC2OC(O[C@H](CCCCCCCCC)CC(=O)OCC3OC(O[C@H](CCCCCCCCC)CC(=O)OCC4OC(O1)C(O)C(O)C4O)C(O)C(O)C3O)C(O)C(O)C2O (some centres undefined) | 13.2 µM (inactive) | 5.79 µM (inactive) | 2.52 µM (inactive) | 7.05 µM (inactive) | 11.9 µM (inactive) |  | 16 µM (inactive) | 5.13 µM (inactive) | 18 µM (inactive) | 18.2 µM (inactive) | 10.7 µM (inactive) | 14.3 µM (inactive) |  | 14.5 µM (inactive) | 10.3 µM (inactive) | 6.62 µM (inactive) | 13.7 µM (inactive) | 9.27 µM (inactive) | 14.9 µM (inactive) | 
16 | O=[N+]([O-])c1cccc(-c2ccc([C@H]3CC(c4ccc(Cl)cc4)=NN3)o2)c1 | 17.7 µM (inactive) | 1.43 µM (inactive) | > 100 µM (inactive) | 17.3 µM (inactive) | 21.3 µM (inactive) |  |  |  | 18.9 µM (inactive) | 23.2 µM (inactive) | 31.7 µM (inactive) | 12.3 µM (inactive) |  | 14.3 µM (inactive) |  |  | 16.7 µM (inactive) | 14.7 µM (inactive) | 16.3 µM (inactive) | 11.4 µM (inactive)
